# Source: US11919856B2, “Compounds” (UCL BUSINESS LTD, priority 2018, dated 2024)
# Tests used:
# [1] = biological target: T1, Z-alpha-1-antitrypsin (Z-A1AT) (Homo sapiens, UniProt P01009, E366K/V237A); test: Inhibition of Z-alpha-1-antitrypsin polymerisation TR-FRET assay; assay type: biochemical; settings: mean, 5 nM Z-A1AT, 72 hours at 37° C.
# T1 construct: Z-alpha-1-antitrypsin was purified from human plasma; from tissue; host or cells: human plasma of ZZ homozygous donors
# Excerpt: The potencies of the compounds of the invention for inhibition of Z-alpha-1-antitrypsin (Z-A1AT) polymerisation can be determined by a time-resolved fluorescence energy transfer (TR-FRET) assay performed on purified Z-A1AT as described herein. […] Mean activity data for the assay described below for compounds 1-4:
# Inhibition of Z-Alpha-1-Antitrypsin Polymerisation Assay Protocol
# Z-alpha-1-antitrypsin was purified from human plasma of donors homozygous for the Z-A1AT form. The purification was performed according to a published protocol (Lomas et al. Biochemistry 1993; 32:500-508) involving ammonium sulphate precipitation, thiol exchange fractionation, and anion exchange fractionation.
# Purified Z-A1AT was diluted to 5 nM in PBS buffer with 0.01% Tween-20 and mixed with different concentrations of inhibitor compounds dissolved in DMSO, in 384-well assay plates. Following incubation for 72 hours at 37° C., the amount of Z-A1AT polymer was detected using a time-resolved fluorescence resonance energy transfer (TR-FRET) assay format, by adding an antibody detection mix to the assay plates. The detection mix contained an A1AT-polymer specific monoclonal antibody (Miranda et al. Hepatology 2010; 52: 1078-1088), Terbium-labelled anti-mouse antibody, a polyclonal rabbit anti-A1AT antibody, and an Alexa488-labelled anti-rabbit antibody. TR-FRET data were normalised to controls (DMSO vehicle control giving 0% inhibition, saturating concentrations of an active compound giving 100% inhibition), and IC50 values were derived by fitting 4-parameter logistic curves to the normalised data.
# An antibody-based time-resolved fluorescence resonance energy transfer (TR-FRET) assay was used to monitor the polymerisation of 5 nM Z α1-antitrypsin following incubation with varying concentrations of compounds at 37° C. for 72 hours. This assay used the 2C1 monoclonal antibody that is specific to pathological polymers of α1-antitrypsin (Miranda et al. Hepatology 2010; 52: 1078-1088), a polyclonal antibody that binds to all forms of α1-antitrypsin, an anti-mouse IgG fluorescence donor (Eu-W1024) and an anti-rabbit IgG acceptor (APC).
# α1-antitrypsin [2] = test: Thermal shift assay (SYPRO Orange); assay type: biochemical; settings: 50 µM Compound 1, SYPRO Orange, versus absence
# Description: The native state stability of serpins on addition of compounds was investigated by thermal denaturation in the presence of a 5× concentration of SYPRO Orange dye solution (Life Technologies). A final protein concentration of 0.1 mg/ml and 50 uM compound suspended in PBS was used (Nettleship et al. Methods Mol Biol. 2008; 426:299-318). The samples were heated from 25° C.-95° C. at a rate of 1° C./min in three separate experiments on an Eppendorph Mastercycler Realplex4 quantitative real-time PCR instrument, and the fluorescence in the 605±15 nm bin recorded. The midpoint of denaturation (Tm) is the temperature at which the first derivative of fluorescence intensity against temperature reaches a maximum.
# (§1) Polymerisation of α1-antitrypsin occurs from a transient intermediate state known as M*, that is readily populated by the Z variant. One of the hallmarks of M* is its recognition by environment-sensitive fluorescent reporter dyes. Thermal shift assays that make use of the dye SYPRO Orange report the stability of the protein native state against heat-induced unfolding. […] Native state stability can also be probed by equilibrium unfolding using chemical denaturants, where a peak in bis-ANS fluorescence corresponds with a maximally populated unfolding intermediate.
# α1-antitrypsin [3] = test: Equilibrium unfolding with guanidine hydrochloride (bis-ANS fluorescence); assay type: biochemical; settings: guanidinium hydrochloride, 50 μM Compound 1; 1.2 M in its absence
# Description: Bis-ANS is a dye that reports the appearance of the unfolding intermediate of α1-antitrypsin (Dafforn et al. J Biol Chem. 1999; 274:9548-55.). In a microplate, 10 μl aliquots of M and Z α1-antitrypsin at 0.5 mg/ml with 100 μM bis-ANS and 100 μM Compound 1 (or an equivalent volume of DMSO) were rapidly mixed with various concentrations of guanidine hydrochloride giving a final concentration of 0-6 M denaturant in PBS. Fluorescence intensity measurements of bis-ANS (λex=385 nm, λem=490 nm) were recorded once a stable signal was achieved, and the values scaled to lie between 0 and 1.0.
# as §1
# [4] = In vitro clearance in cryopreserved hepatocytes, human; assay type: in vitro ADME
# [5] = Blood exposure after single PO administration in male CD-1 mouse; assay type: in vivo
# Excerpt: Compound 1 had in vitro ADME properties suitable for in vivo evaluation of the pre-clinical and clinical pharmacology of the molecule.
# Z α1-antitrypsin = Z α1-antitrypsin (Homo sapiens, UniProt P01009, E366K/V237A); test: Compound association experiments (intrinsic tryptophan fluorescence), Z α1-antitrypsin; assay type: binding; parameters: a random insertion of the human Z α1-antitrypsin gene; from tissue; host or cells: liver and plasma of Z α1-antitrypsin transgenic mice (human Z transgene)
# Description: The intrinsic tryptophan fluorescence of α1-antitrypsin is dominated by Trp194 in the breach region (Tew et al. J Mol Biol. 2001 Nov. 9; 313(5):1161-9) and can be used to monitor the progress of compound binding. Plasma M and Z α1-antitrypsin were diluted to 0.2 mg/ml in 100 μM PBS, and Compound 1 (or an equivalent volume of DMSO) added to a concentration of 10 μM. Fluorescence (λex=280 nm, λem=330 nm) was monitored for at least 2 hours, and the half-time of change was calculated.
# Kinetic data in stopped flow experiments were fitted to exponential decay curves with offset and linear slope, to account for a constant drift in the background, resulting in observed pseudo-first-order rate constants k(obs): y=A0·e^−k(obs)t+slope·t+offset where t=time and Ao=amplitude at t=0. The second-order on-rate was then obtained as the slope when plotting k(obs) values versus compound concentration. Off-rates were calculated from the on-rates and the KD values determined from the binding assays. Cell Biology
# Sequence of Z α1-antitrypsin (P01009 25-418 V237A/E366K): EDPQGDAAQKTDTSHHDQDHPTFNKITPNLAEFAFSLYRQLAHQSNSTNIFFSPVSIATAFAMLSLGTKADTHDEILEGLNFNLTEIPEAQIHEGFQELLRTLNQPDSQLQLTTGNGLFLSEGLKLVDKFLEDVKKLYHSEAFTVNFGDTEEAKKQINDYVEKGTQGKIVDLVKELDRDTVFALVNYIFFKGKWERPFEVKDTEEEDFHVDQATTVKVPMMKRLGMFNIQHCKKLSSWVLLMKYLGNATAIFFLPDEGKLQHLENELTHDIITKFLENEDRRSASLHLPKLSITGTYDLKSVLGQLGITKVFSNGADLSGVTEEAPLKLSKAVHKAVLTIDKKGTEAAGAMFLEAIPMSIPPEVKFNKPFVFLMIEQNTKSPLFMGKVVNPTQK
# T1 sequence (P01009 25-418 V237A/E366K): as above
smiles,measurement,setting,value
"CCC[C@@H](NC(=O)c1cccc2c1CC(=O)N2)[C@@H](O)c1cccc(F)c1C [Compound 1, N-[(1S,2R)-1-(3-fluoro-2-methylphenyl)-1-hydroxypentan-2-yl]-2-oxo-2,3-dihydro-1H-indole-4-carboxamide]",IC50,[1],5.01 nM
same,transition midpoint temperature,α1-antitrypsin [2],marked increase
same,denaturant concentration at peak bis-ANS fluorescence (maximally populated unfolding intermediate),α1-antitrypsin [3],1.8 M
same,in vitro clearance in cryopreserved hepatocytes,[4],0.3 ± 0.05 mL/min/g
same,DNAUCinf,[5]; single PO 10 mg/kg,202±101
same,mean dose-normalised Cmax,[5]; single PO 10 mg/kg,58±112
same,DNAUCinf,[5]; single PO 30 mg/kg,294±47
same,mean dose-normalised Cmax,[5]; single PO 30 mg/kg,113±27
same,DNAUCinf,[5]; single PO 100 mg/kg,403±246
same,mean dose-normalised Cmax,[5]; single PO 100 mg/kg,113±27
same,koff,"Z α1-antitrypsin; calculated from on-rate and KD, read-out: first-order dissociation rate",6.1e-05 s⁻¹
same,kon,Z α1-antitrypsin; read-out: second-order association rate,41000 M⁻¹ s⁻¹
